Data set [1] has as its system EBC-1 cells. Briefly: Cytostasis (viability) assay, Alamar Blue. It counts as cell-based, human. Particulars: for live cell %: mean ± SEM; for dead cells: alone. Here is the method:
EBC-1 (squamous cell carcinoma, metastatic, origin: bronchi, JCRB No: JCRB0820[85],[86], originally purchased from Thermo Fisher Scientific and provided by the National Institute of Oncology, Budapest, Hungary) cells were maintained as an adherent culture in DMEM medium (Lonza) containing 10% FBS (Gibco) and supplemented with 2 mM of L-glutamine (Lonza), 1% non-essential amino acids (Gibco), 1 mM sodium pyruvate (Sigma-Aldrich), 1% penicillin–streptomycin (10,000 units penicillin and 10 mg streptomycin/ml, Gibco), at 37 °C in a humidified atmosphere containing 5% CO2.
For testing cytostatic effects, 3500 cells per well were plated in 96-well flat bottom tissue culture plates (Sarstedt, Nümbrecht, Germany) in complete DMEM medium. LL-37 stock solution was prepared in serum-free medium (SFM) at 200 µM, while heme compounds were dissolved first in 10 mM NaOH at 3 mM, sterile filtered, and diluted tenfold in SFM. Cells were incubated with the peptide, small molecules, or peptide-small molecule mixtures for 24 h. Then cells were washed three times with SFM and cultured further for 72 h in complete medium. Cytostatic activity was determined using the Alamar Blue assay, where 20 µl Alamar Blue (resazurin sodium salt, Sigma-Aldrich) solution (0.15 mg/ml, dissolved in PBS, pH 7.4) was added to each well. Following a 3 h incubation, fluorescence (λEx = 530/30 and λEm = 610/10 nm) was read using a Synergy H4 multi-mode microplate reader (BioTek, Winooski, VT, USA). Live cell percentage of treated cells was calculated compared to control cells treated with medium only. All measurements were performed in triplicates, and live cell % values together with SEM are presented.

For data set [2], the system named is EBC-1 cells. Put plainly: Cell morphology by bright field microscopy. It counts as cell-based, human. The settings on record: 3 h exposure; for cell morphology: 33 µM. The procedure:
To visualize cell morphology changes, microscopic images of EBC-1 cells were captured. EBC-1 cells were plated in a 96-well flat bottom tissue culture plate and treated with peptide, heme compounds, and their mixtures as described in the above section. Microscopic images of the adherent cells were taken after the first 3 h of the treatment using an Olympus CKX41 microscope (Hamburg, Germany, objective: 20×).

The conditions of data set [3]: cited from earlier work. Here is the method:
Based on CD spectral features, apparent dissociation constants in the 20–50 μM range could be estimated for the peptide-hemin interactions as a single dose of a molar equivalent of hemin (25 μM) was enough here to reach close-to-saturation levels for several peptides (Fig. 1). […] It should be noted that classical considerations on affinity determination might fail for the ...

A short description of data set [4]: Dynamic light scattering of peptide-hemin assemblies. Type of data set: physicochemical. The settings on record: three-component systems: 25 µM peptide, 75 µM hemin, 635 µM lipid (PC or PC/PG), PBS, various mixing order. The procedure: Particle size and size distribution of the peptide-small molecule mixtures were measured at 20 °C using a W130i dynamic light scattering device (DLS, Avid Nano Ltd., High Wycombe, UK) with a diode laser (660 nm) and a photodiode detector. Low volume disposable cuvettes with 1 cm path-length were used (UVette, Eppendorf Austria GmbH). Samples prepared for CD experiments were measured after completing the titration. The time-dependent autocorrelation function was measured for 10 s, repeated 10 times.

The subject of a further data set is erythrocytes. Particulars: cited from earlier work. The text has this: Based on our results on model membranes, and in vitro assays on the selected cell line above, further activity alterations of the AMPs upon complex formation with hemin may be speculated. First of all, AMP–heme interaction could result in reduced antimicrobial activity by lowering the active peptide concentration. This can be achieved either by sequestering the free available peptide fraction by heme not allowing membrane interaction or by precluding formation of the active membrane-bound conformation of the peptides in the hemin-complexed membrane-associated form. A further interesting point ...

The nature of data set [5]: Intrinsic Trp fluorescence quenching by hemin. It counts as binding. Particulars: PBS, 25 °C. Here is the method: Spectra were collected using a Jobin Yvon Fluoromax-3 spectrofluorometer at 25 °C in PBS. Spectra were recorded three times, averaged, and corrected by subtracting an appropriate blank. The Trp fluorophore was excited at 295 nm, and emission was monitored from 305 to 400 nm. 2 µM peptide was titrated with subsequent addition of hemin (up to 20 μM) in the presence and absence of liposomes (100 µM total lipid).

The conditions of data set [6]: hemin-to-peptide ratio of 1:3; no lipid; cited from earlier work.

Here are results for 5 compounds from PMC8443738, “Interplay between membrane active host defense peptides and heme modulates their assemblies and in vitro activity” (Scientific Reports, 2021).

Several values for one entry are separate records, joined by “and”; a condition that tells them apart may be missing. Equal values may be shown once. Where a name gives a salt, the structure may show the parent alone. Read-outs that look alike come from different tables or passages of the source. Where only a bound is given, the exact number is not on record here.

`C=CC1=C(C)/C(=C/C2=NC(=C\c3[nH]c(/C=C4\NC(=O)C(C)=C4C=C)c(C)c3CCC(=O)O)/C(CCC(=O)O)=C2C)NC1=O` [biliverdin, biliverdin HCl]: the toxicity result with EBC-1 cells [1] (EBC-1, up to 100 µM (Fig. S12)) is on record as “No significant toxicity”. Moreover, the cytostatic effect entry in the data set with EBC-1 cells [1] (EBC-1, up to 100 µM, 24 h treatment + 72 h culture, Alamar Blue) is “No cytostatic effect”. In addition, the cell morphology result in the data set on EBC-1 cells [2] was “Non-damaged cells”.
In the case of “LLGDFFRKSKEKIGKEFKRIVQRIKDFLRNLVPRTES [LL-37, the only human cathelicidin, a host defense peptide]”, in the data set on EBC-1 cells [1] (EBC-1, 17 µM LL-37 administered together with hemin or biliverdin), the live cell percentage is given as 25–35%. The live cell % with EBC-1 cells [1] (EBC-1, 17 µM LL-37 alone, relative to untreated control, n = 3) was 4.7 ± 1.3% and ~ 5%; in the data set with EBC-1 cells [1] (EBC-1, 17 µM LL-37 with biliverdin at 1:3 ratio, n = 3) it was 34 ± 6%; in the data set on EBC-1 cells [1] (EBC-1, 17 µM LL-37 with hemin at 1:1 peptide to hemin ratio, n = 3) it was 36 ± 12%; in the data set with EBC-1 cells [1] (EBC-1, 17 µM LL-37 with hemin at 1:3 ratio, n = 3), 23 ± 6%. The cells killed is ~ 90% in the data set with EBC-1 cells [1] (EBC-1, LL-37 at 17 µM, 24 h treatment + 72 h culture, Alamar Blue, n = 3) and “almost all cells” in the data set with EBC-1 cells [1] (EBC-1, LL-37 at 50 µM, 24 h treatment + 72 h culture, Alamar Blue, n = 3). The cytostatic effect result in the data set on EBC-1 cells [1] (EBC-1, LL-37 at ~5 µM, 24 h treatment + 72 h culture, Alamar Blue, n = 3) is on record as “no significant effect”. In addition, in data set [3] (calculated, read-out: Kd, interaction with hemin), the Kd was 20 to 36 µM. Also, the cell morphology alterations result in the data set with EBC-1 cells [2] (17 µM LL-37) was “shrinkage, and membrane defects”.
Take CM15: the “average particle size of aggregates (DLS)” value in data set [4] is reported as not above 1 µm. Moreover, the hemolytic effects result in the data set on erythrocytes is recorded as “moderate”. For the same compound, the “Trp fluorescence quenching by hemin” value in data set [5] (2 µM peptide, 10 µM hemin, no lipid) is “total signal loss”.
Consider melittin, for which the hemolytic effects result in the data set on erythrocytes is listed as “strong”. For the same compound, the “remaining Trp fluorescence intensity on hemin quenching” value in data set [6] is on record as 5–10%. Besides, the Kd in data set [3] (read-out: binding strength, interaction with hemin) was 60 to 120 µM. The “Trp fluorescence quenching by hemin” value in data set [5] (2 µM peptide with PC liposomes) is on record as “complete signal loss”.
For hemin, the “concentration with dose-dependent cytostatic effect” value in the data set on EBC-1 cells [1] (EBC-1 (Fig. S12)) is given as not below 33 µM. Further, the dead cells in the data set with EBC-1 cells [1] (EBC-1, 33 µM, 24 h treatment + 72 h culture, Alamar Blue) is ~ 20%; in the data set with EBC-1 cells [1] (EBC-1, 100 µM, 24 h treatment + 72 h culture, Alamar Blue), approximately 60%. Moreover, the “concentration at which cytostatic” value with EBC-1 cells [1] (EBC-1, compound alone, 24 h treatment + 72 h culture, Alamar Blue) was more than 10 µM. Besides, the cell morphology entry in the data set with EBC-1 cells [2] was “Non-damaged cells”.
